Assay results reported in article PMC12260505, “First-in-Human Phase I/IIa Study of the First-in-Class CDK2/4/6 Inhibitor PF-06873600 Alone or with Endocrine Therapy in Patients with Breast Cancer” (Clinical Cancer Research, 2025).

Assay: Adverse events graded by NCI CTCAE version 4.03, phase I/IIa study
Format: in vivo
Method: Part 1 included adult patients with HR^+/HER2^− advanced breast cancer or mBC (third- or fourth-line setting), locally recurrent/advanced or metastatic TNBC, or advanced platinum-resistant epithelial ovarian cancer/fallopian tube cancer/primary peritoneal cancer who received oral PF-06873600 at doses of 1 to 50 mg twice daily or oral PF-06873600 plus ET (letrozole or fulvestrant). Primary endpoints for part 1 dose escalation determined safety and tolerability to define dose-limiting toxicities (DLT), estimate the maximum tolerated dose, and select the recommended dose for expansion (RDE). Safety endpoints included adverse events (AE) characterized by type, frequency, severity [as graded by NCI Common Terminology Criteria for Adverse Events (CTCAE) version 4.03], timing, seriousness, and relationship to study therapy. Laboratory abnormalities were characterized by type, frequency, severity (as graded by NCI CTCAE version 4.03), timing, vital sign abnormalities, and heart rate–corrected QT interval (e.g., QTcF). Secondary endpoints included PK, preliminary antitumor activity as assessed using RECIST version 1.1, time-to-event endpoints including objective response rate (ORR), duration of response (DoR), progression-free survival (PFS), time to progression (TTP), and modulation of tumor CDK biomarkers [phosphorylated Rb (pRb), Ki67]. Exploratory endpoints included molecular profiling of tumor and ctDNA and the relationship to clinical outcome.
AEs were graded by NCI CTCAE version 4.03.

[1] = Part 2A 25 mg BID IR + Fulvestrant, N = 45
[2] = Part 2C 25 mg BID IR + Fulvestrant, N = 28

Structure (SMILES): C[C@@]1(O)CCC[C@H]1n1c(=O)c(C(F)F)cc2cnc(NC3CCN(S(C)(=O)=O)CC3)nc21 [PF-06873600]
- Treatment-related TEAE, Abdominal pain, Grade 1 [1]: 7 (15.6) n (%)
- Treatment-related TEAE, Abdominal pain, Grade 2 [1]: 1 (2.2) n (%)
- Treatment-related TEAE, Abdominal pain, Grade 3/4 [1]: 0 n (%)
- Treatment-related TEAE, Abdominal pain, Grade 5 [1]: 0 n (%)
- Treatment-related TEAE, Abdominal pain, Total [1]: 8 (17.8) n (%)
- Treatment-related TEAE, Alopecia, Grade 1 [1]: 7 (15.6) n (%)
- Treatment-related TEAE, Alopecia, Grade 2 [1]: 9 (20.0) n (%)
- Treatment-related TEAE, Alopecia, Grade 3/4 [1]: 0 n (%)
- Treatment-related TEAE, Alopecia, Grade 5 [1]: 0 n (%)
- Treatment-related TEAE, Alopecia, Total [1]: 16 (35.6 ) n (%)
- Treatment-related TEAE, Anemia, Grade 1 [1]: 3 (6.7) n (%)
- Treatment-related TEAE, Anemia, Grade 2 [1]: 10 (22.2 ) n (%)
- Treatment-related TEAE, Anemia, Grade 3/4 [1]: 7 (15.6) n (%)
- Treatment-related TEAE, Anemia, Grade 5 [1]: 0 n (%)
- Treatment-related TEAE, Anemia, Total [1]: 20 (44.4 ) n (%)
- Treatment-related TEAE, Any adverse event, Grade 1 [1]: 9 (20.0) n (%)
- Treatment-related TEAE, Any adverse event, Grade 2 [1]: 17 (37.8 ) n (%)
- Treatment-related TEAE, Any adverse event, Grade 3/4 [1]: 19 (42.2 ) n (%)
- Treatment-related TEAE, Any adverse event, Grade 5 [1]: 0 n (%)
- Treatment-related TEAE, Any adverse event, Total [1]: 45 (100. 0) n (%)
- Treatment-related TEAE, Constipation, Grade 1 [1]: 4 (8.9) n (%)
- Treatment-related TEAE, Constipation, Grade 2 [1]: 5 (11.1) n (%)
- Treatment-related TEAE, Constipation, Grade 3/4 [1]: 0 n (%)
- Treatment-related TEAE, Constipation, Grade 5 [1]: 0 n (%)
- Treatment-related TEAE, Constipation, Total [1]: 9 (20.0) n (%)
- Treatment-related TEAE, Decreased appetite, Grade 1 [1]: 6 (13.3) n (%)
- Treatment-related TEAE, Decreased appetite, Grade 2 [1]: 1 (2.2) n (%)
- Treatment-related TEAE, Decreased appetite, Grade 3/4 [1]: 0 n (%)
- Treatment-related TEAE, Decreased appetite, Grade 5 [1]: 0 n (%)
- Treatment-related TEAE, Decreased appetite, Total [1]: 7 (15.6) n (%)
- Treatment-related TEAE, Diarrhea, Grade 1 [1]: 7 (15.6) n (%)
- Treatment-related TEAE, Diarrhea, Grade 2 [1]: 1 (2.2) n (%)
- Treatment-related TEAE, Diarrhea, Grade 3/4 [1]: 2 (4.4) n (%)
- Treatment-related TEAE, Diarrhea, Grade 5 [1]: 0 n (%)
- Treatment-related TEAE, Diarrhea, Total [1]: 10 (22.2 ) n (%)
- Treatment-related TEAE, Dizziness, Grade 1 [1]: 6 (13.3) n (%)
- Treatment-related TEAE, Dizziness, Grade 2 [1]: 2 (4.4) n (%)
- Treatment-related TEAE, Dizziness, Grade 3/4 [1]: 0 n (%)
- Treatment-related TEAE, Dizziness, Grade 5 [1]: 0 n (%)
- Treatment-related TEAE, Dizziness, Total [1]: 8 (17.8) n (%)
- Treatment-related TEAE, Fatigue, Grade 1 [1]: 10 (22.2 ) n (%)
- Treatment-related TEAE, Fatigue, Grade 2 [1]: 13 (28.9 ) n (%)
- Treatment-related TEAE, Fatigue, Grade 3/4 [1]: 5 (11.1) n (%)
- Treatment-related TEAE, Fatigue, Grade 5 [1]: 0 n (%)
- Treatment-related TEAE, Fatigue, Total [1]: 28 (62.2 ) n (%)
- Treatment-related TEAE, Headache, Grade 1 [1]: 12 (26.7 ) n (%)
- Treatment-related TEAE, Headache, Grade 2 [1]: 4 (8.9) n (%)
- Treatment-related TEAE, Headache, Grade 3/4 [1]: 0 n (%)
- Treatment-related TEAE, Headache, Grade 5 [1]: 0 n (%)
- Treatment-related TEAE, Headache, Total [1]: 16 (35.6 ) n (%)
- Treatment-related TEAE, Leukopenia, Grade 1 [1]: 1 (2.2) n (%)
- Treatment-related TEAE, Leukopenia, Grade 2 [1]: 8 (17.8) n (%)
- Treatment-related TEAE, Leukopenia, Grade 3/4 [1]: 2 (4.4) n (%)
- Treatment-related TEAE, Leukopenia, Grade 5 [1]: 0 n (%)
- Treatment-related TEAE, Leukopenia, Total [1]: 11 (24.4 ) n (%)
- Treatment-related TEAE, Nausea, Grade 1 [1]: 22 (48.9 ) n (%)
- Treatment-related TEAE, Nausea, Grade 2 [1]: 6 (13.3) n (%)
- Treatment-related TEAE, Nausea, Grade 3/4 [1]: 1 (2.2) n (%)
- Treatment-related TEAE, Nausea, Grade 5 [1]: 0 n (%)
- Treatment-related TEAE, Nausea, Total [1]: 29 (64.4 ) n (%)
- Treatment-related TEAE, Neutropenia, Grade 1 [1]: 4 (8.9) n (%)
- Treatment-related TEAE, Neutropenia, Grade 2 [1]: 5 (11.1) n (%)
- Treatment-related TEAE, Neutropenia, Grade 3/4 [1]: 13 (28.9 ) n (%)
- Treatment-related TEAE, Neutropenia, Grade 5 [1]: 0 n (%)
- Treatment-related TEAE, Neutropenia, Total [1]: 22 (48.9 ) n (%)
- Treatment-related TEAE, Thrombocytopenia, Grade 1 [1]: 5 (11.1) n (%)
- Treatment-related TEAE, Thrombocytopenia, Grade 2 [1]: 2 (4.4) n (%)
- Treatment-related TEAE, Thrombocytopenia, Grade 3/4 [1]: 3 (6.7) n (%)
- Treatment-related TEAE, Thrombocytopenia, Grade 5 [1]: 0 n (%)
- Treatment-related TEAE, Thrombocytopenia, Total [1]: 10 (22.2 ) n (%)
- Treatment-related TEAE, Vomiting, Grade 1 [1]: 12 (26.7 ) n (%)
- Treatment-related TEAE, Vomiting, Grade 2 [1]: 3 (6.7) n (%)
- Treatment-related TEAE, Vomiting, Grade 3/4 [1]: 1 (2.2) n (%)
- Treatment-related TEAE, Vomiting, Grade 5 [1]: 0 n (%)
- Treatment-related TEAE, Vomiting, Total [1]: 16 (35.6 ) n (%)
- Treatment-related TEAE, Abdominal pain, Grade 1 [2]: 0 n (%)
- Treatment-related TEAE, Abdominal pain, Grade 2 [2]: 0 n (%)
- Treatment-related TEAE, Abdominal pain, Grade 3/4 [2]: 0 n (%)
- Treatment-related TEAE, Abdominal pain, Grade 5 [2]: 0 n (%)
- Treatment-related TEAE, Abdominal pain, Total [2]: 0 n (%)
- Treatment-related TEAE, Alopecia, Grade 1 [2]: 6 (21.4) n (%)
- Treatment-related TEAE, Alopecia, Grade 2 [2]: 2 (7.1) n (%)
- Treatment-related TEAE, Alopecia, Grade 3/4 [2]: 0 n (%)
- Treatment-related TEAE, Alopecia, Grade 5 [2]: 0 n (%)
- Treatment-related TEAE, Alopecia, Total [2]: 8 (28.6) n (%)
- Treatment-related TEAE, Anemia, Grade 1 [2]: 4 (14.3) n (%)
- Treatment-related TEAE, Anemia, Grade 2 [2]: 3 (10.7) n (%)
- Treatment-related TEAE, Anemia, Grade 3/4 [2]: 3 (10.7) n (%)
- Treatment-related TEAE, Anemia, Grade 5 [2]: 0 n (%)
- Treatment-related TEAE, Anemia, Total [2]: 10 (35.7 ) n (%)
- Treatment-related TEAE, Any adverse event, Grade 1 [2]: 7 (25.0) n (%)
- Treatment-related TEAE, Any adverse event, Grade 2 [2]: 8 (28.6) n (%)
- Treatment-related TEAE, Any adverse event, Grade 3/4 [2]: 8 (28.6) n (%)
- Treatment-related TEAE, Any adverse event, Grade 5 [2]: 1 (3.6) n (%)
- Treatment-related TEAE, Any adverse event, Total [2]: 24 (85.7 ) n (%)
- Treatment-related TEAE, Constipation, Grade 1 [2]: 1 (3.6) n (%)
- Treatment-related TEAE, Constipation, Grade 2 [2]: 2 (7.1) n (%)
- Treatment-related TEAE, Constipation, Grade 3/4 [2]: 0 n (%)
- Treatment-related TEAE, Constipation, Grade 5 [2]: 0 n (%)
- Treatment-related TEAE, Constipation, Total [2]: 3 (10.7) n (%)
- Treatment-related TEAE, Decreased appetite, Grade 1 [2]: 2 (7.1) n (%)
- Treatment-related TEAE, Decreased appetite, Grade 2 [2]: 0 n (%)
- Treatment-related TEAE, Decreased appetite, Grade 3/4 [2]: 0 n (%)
- Treatment-related TEAE, Decreased appetite, Grade 5 [2]: 0 n (%)
- Treatment-related TEAE, Decreased appetite, Total [2]: 2 (7.1) n (%)
- Treatment-related TEAE, Diarrhea, Grade 1 [2]: 4 (14.3) n (%)
- Treatment-related TEAE, Diarrhea, Grade 2 [2]: 1 (3.6) n (%)
- Treatment-related TEAE, Diarrhea, Grade 3/4 [2]: 0 n (%)
- Treatment-related TEAE, Diarrhea, Grade 5 [2]: 0 n (%)
- Treatment-related TEAE, Diarrhea, Total [2]: 5 (17.9) n (%)
- Treatment-related TEAE, Dizziness, Grade 1 [2]: 0 n (%)
- Treatment-related TEAE, Dizziness, Grade 2 [2]: 1 (3.6) n (%)
- Treatment-related TEAE, Dizziness, Grade 3/4 [2]: 0 n (%)
- Treatment-related TEAE, Dizziness, Grade 5 [2]: 0 n (%)
- Treatment-related TEAE, Dizziness, Total [2]: 1 (3.6) n (%)
- Treatment-related TEAE, Fatigue, Grade 1 [2]: 7 (25.0) n (%)
- Treatment-related TEAE, Fatigue, Grade 2 [2]: 0 n (%)
- Treatment-related TEAE, Fatigue, Grade 3/4 [2]: 2 (7.1) n (%)
- Treatment-related TEAE, Fatigue, Grade 5 [2]: 0 n (%)
- Treatment-related TEAE, Fatigue, Total [2]: 9 (32.1) n (%)
- Treatment-related TEAE, Headache, Grade 1 [2]: 9 (32.1) n (%)
- Treatment-related TEAE, Headache, Grade 2 [2]: 0 n (%)
